# Experimental data taken from patent US9211310B2, “Use of a Chinese medicine composition in preparing medicaments for treating secondary prevention of myocardial infarction” (TASLY PHARMACEUTICAL GROUP CO., LTD, priority 2010, dated 2015).
# Tested on: patients after acute myocardial infarction
# Assay: Life quality, Seattle Angina Questionnaire (SAQ), same clinical trial
# Assay type: in vivo, human
# Conditions: FAS
# Text: 3508 patients who were in accordance with the diagnostic standards of AMI for 28 days to 2 years and differentiated as Qi deficiency and blood stagnation syndrome by TCM were studied. 0.5 g Chinese medicine composition prepared by the method of EXAMPLE 1 (Coded as QSYQ) was administrated half an hour after meal, 3 times per day.
# There were 19 questions in the Seattle angina questionnaire (SAQ), including 5 parts: physical limitation (PL), anginal stability (AS), anginal frequency (AF), treatment satisfaction (TS) and disease perception (DP). After being given necessary explanation by doctors, the questions were answered independently by patients.
# They included the overall survival time, angina pectoris score, TCM symptom score and life quality score, where angina pectoris score, TCM symptom score and life quality score were evaluated at randomization, in 1st, 3rd, 6th, 9th, 12th month after treatment and 18th month after follow-up.
# All evaluation results of SAQ were described during the period of observation, and Wilcoxon rank sum test was used for inter-group comparison.
# The evaluation results in the SAQ were depicted in different observations, and inter-group comparison was tested by Wilcoxon Rank-sum test.
structure (smiles),measurement,setting,value
"CC(=O)Oc1ccccc1C(=O)O [Control group, aspirine]","10th question: Mostly satisfied, patients (%)",Baseline,(16.89%)
same,"10th question: Partly satisfied, patients (%)",Baseline,(31.19%)
same,"11th question: Continuously worried, patients (%)",Baseline,(9.59%)
same,"11th question: No worried, patients (%)",Baseline,(4.13%)
same,"11th question: Occasionally worried, patients (%)",Baseline,(40.93%)
same,"11th question: Often worried, patients (%)",Baseline,(23.88%)
same,"11th question: Seldom worried, patients (%)",Baseline,(21.47%)
same,"SAQ 4th question, 1-2 times per week: % of patients",Baseline,(19.80%)
same,"SAQ 4th question, 1-2 times per week: number of patients",Baseline,344
same,"SAQ 4th question, 1-3 times per day: % of patients",Baseline,(8.64%)
same,"SAQ 4th question, 1-3 times per day: number of patients",Baseline,150
same,"SAQ 4th question, <1 time per week: % of patients",Baseline,(10.13%)
same,"SAQ 4th question, <1 time per week: number of patients",Baseline,176
same,"SAQ 4th question, Not used: % of patients",Baseline,(43.64%)
same,"SAQ 4th question, Not used: number of patients",Baseline,758
same,"SAQ 4th question, ≧3 times per week: % of patients",Baseline,(16.87%)
same,"SAQ 4th question, ≧3 times per week: number of patients",Baseline,293
same,"SAQ 4th question, ≧4 times per day: % of patients",Baseline,(0.92%)
same,"SAQ 4th question, ≧4 times per day: number of patients",Baseline,16
same,"SAQ 5th question, Few: % of patients",Baseline,(18.88%)
same,"SAQ 5th question, Few: number of patients",Baseline,328
same,"SAQ 5th question, Mild: % of patients",Baseline,(30.74%)
same,"SAQ 5th question, Mild: number of patients",Baseline,534
same,"SAQ 5th question, Moderate: % of patients",Baseline,(20.50%)
same,"SAQ 5th question, Moderate: number of patients",Baseline,356
same,"SAQ 5th question, None: % of patients",Baseline,(23.43%)
same,"SAQ 5th question, None: number of patients",Baseline,407
same,"SAQ 5th question, Not medicated by doctors: % of patients",Baseline,(2.99%)
same,"SAQ 5th question, Not medicated by doctors: number of patients",Baseline,52
same,"SAQ 5th question, Severe: % of patients",Baseline,(3.45%)
same,"SAQ 5th question, Severe: number of patients",Baseline,60
same,"SAQ 6th question, Dissatisfied: % of patients",Baseline,(1.15%)
same,"SAQ 6th question, Dissatisfied: number of patients",Baseline,20
same,"SAQ 6th question, Highly satisfied: % of patients",Baseline,(15.33%)
same,"SAQ 6th question, Highly satisfied: number of patients",Baseline,267
same,"SAQ 6th question, Mostly dissatisfied: % of patients",Baseline,(6.54%)
same,"SAQ 6th question, Mostly dissatisfied: number of patients",Baseline,114
same,"SAQ 6th question, Mostly satisfied: % of patients",Baseline,(45.52%)
same,"SAQ 6th question, Mostly satisfied: number of patients",Baseline,793
same,"SAQ 6th question, Partly satisfied: % of patients",Baseline,(31.46%)
same,"SAQ 6th question, Partly satisfied: number of patients",Baseline,548
same,"SAQ 7th question, Dissatisfied: % of patients",Baseline,(0.40%)
same,"SAQ 7th question, Dissatisfied: number of patients",Baseline,7
same,"SAQ 7th question, Highly satisfied: % of patients",Baseline,(20.40%)
same,"SAQ 7th question, Highly satisfied: number of patients",Baseline,355
same,"SAQ 7th question, Mostly dissatisfied: % of patients",Baseline,(4.60%)
same,"SAQ 7th question, Mostly dissatisfied: number of patients",Baseline,80
same,"SAQ 7th question, Mostly satisfied: % of patients",Baseline,(47.99%)
same,"SAQ 7th question, Mostly satisfied: number of patients",Baseline,835
same,"SAQ 7th question, Partly satisfied: % of patients",Baseline,(26.61%)
same,"SAQ 7th question, Partly satisfied: number of patients",Baseline,463
same,"SAQ Question 1-1 Mildly limited, number of patients",Baseline,34
same,"SAQ Question 1-1 Mildly limited, percent of patients",Baseline,(1.95%)
same,"SAQ Question 1-1 Moderately limited, number of patients",Baseline,16
same,"SAQ Question 1-1 Moderately limited, percent of patients",Baseline,(0.92%)
same,"SAQ Question 1-1 Not limited, number of patients",Baseline,1582
same,"SAQ Question 1-1 Not limited, percent of patients",Baseline,(90.92%)
same,"SAQ Question 1-1 Other reasons, number of patients",Baseline,5
same,"SAQ Question 1-1 Other reasons, percent of patients",Baseline,(0.29%)
same,"SAQ Question 1-1 Severely limited, number of patients",Baseline,1
same,"SAQ Question 1-1 Severely limited, percent of patients",Baseline,(0.06%)
same,"SAQ Question 1-1 Slightly limited, number of patients",Baseline,102
same,"SAQ Question 1-1 Slightly limited, percent of patients",Baseline,(5.86%)
same,"SAQ Question 1-2 Mildly limited, number of patients",Baseline,46
same,"SAQ Question 1-2 Mildly limited, percent of patients",Baseline,(2.64%)
same,"SAQ Question 1-2 Moderately limited, number of patients",Baseline,18
same,"SAQ Question 1-2 Moderately limited, percent of patients",Baseline,(1.03%)
same,"SAQ Question 1-2 Not limited, number of patients",Baseline,1539
same,"SAQ Question 1-2 Not limited, percent of patients",Baseline,(88.45%)
same,"SAQ Question 1-2 Other reasons, number of patients",Baseline,6
same,"SAQ Question 1-2 Other reasons, percent of patients",Baseline,(0.34%)
same,"SAQ Question 1-2 Severely limited, number of patients",Baseline,2
same,"SAQ Question 1-2 Severely limited, percent of patients",Baseline,(0.11%)
same,"SAQ Question 1-2 Slightly limited, number of patients",Baseline,129
same,"SAQ Question 1-2 Slightly limited, percent of patients",Baseline,(7.41%)
same,"SAQ Question 1-6: Mildly limited, patients (%)",Baseline,(20.89%)
same,"SAQ Question 1-6: Moderately limited, patients (%)",Baseline,(17.95%)
same,"SAQ Question 1-6: Not limited, patients (%)",Baseline,(25.85%)
same,"SAQ Question 1-6: Other reasons, patients (%)",Baseline,(0.92%)
same,"SAQ Question 1-6: Severely limited, patients (%)",Baseline,(6.75%)
same,"SAQ Question 1-6: Slightly limited, patients (%)",Baseline,(27.64%)
same,"SAQ Question 1-7: Mildly limited, patients (%)",Baseline,(24.74%)
same,"SAQ Question 1-7: Moderately limited, patients (%)",Baseline,(19.42%)
same,"SAQ Question 1-7: Not limited, patients (%)",Baseline,(10.64%)
same,"SAQ Question 1-7: Other reasons, patients (%)",Baseline,(2.81%)
same,"SAQ Question 1-7: Severely limited, patients (%)",Baseline,(20.94%)
same,"SAQ Question 1-7: Slightly limited, patients (%)",Baseline,(21.46%)
same,"SAQ Question 1-8: Mildly limited, patients (%)",Baseline,(23.63%)
same,"SAQ Question 1-8: Moderately limited, patients (%)",Baseline,(22.57%)
same,"SAQ Question 1-8: Not limited, patients (%)",Baseline,(8.07%)
same,"SAQ Question 1-8: Other reasons, patients (%)",Baseline,(2.40%)
same,"SAQ Question 1-8: Severely limited, patients (%)",Baseline,(25.96%)
same,"SAQ Question 1-8: Slightly limited, patients (%)",Baseline,(17.37%)
same,"8th question: Dissatisfied, patients (%)",Follow-up,(0.07%)
same,"8th question: Highly satisfied, patients (%)",Follow-up,(28.03%)
same,"8th question: Mostly dissatisfied, patients (%)",Follow-up,(0.62%)
same,"8th question: Mostly satisfied, patients (%)",Follow-up,(60.61%)
same,"8th question: Partly satisfied, patients (%)",Follow-up,(10.67%)
same,"9th question: Few, patients (%)",Follow-up,(44.26%)
same,"9th question: Mild, patients (%)",Follow-up,(27.29%)
same,"9th question: Moderate, patients (%)",Follow-up,(3.78%)
same,"9th question: Severe, patients (%)",Follow-up,(0.14%)
same,"9th question: Uneffective, patients (%)",Follow-up,(24.54%)
same,"10th question: Dissatisfied, patients (%)",Follow-up,(18.50%)
same,"10th question: Highly satisfied, patients (%)",Follow-up,(9.56%)
same,"10th question: Mostly dissatisfied, patients (%)",Follow-up,(19.05%)
same,"10th question: Mostly satisfied, patients (%)",Follow-up,(32.12%)
same,"10th question: Partly satisfied, patients (%)",Follow-up,(20.77%)
same,"11th question: Continuously worried, patients (%)",Follow-up,(1.38%)
same,"11th question: No worried, patients (%)",Follow-up,(8.80%)
same,"11th question: Occasionally worried, patients (%)",Follow-up,(38.93%)
same,"11th question: Often worried, patients (%)",Follow-up,(6.74%)
same,"11th question: Seldom worried, patients (%)",Follow-up,(44.15%)
same,"SAQ 4th question, 1-2 times per week: % of patients",Follow-up,(13.28%)
same,"SAQ 4th question, 1-2 times per week: number of patients",Follow-up,192
same,"SAQ 4th question, 1-3 times per week: % of patients",Follow-up,(2.84%)
same,"SAQ 4th question, 1-3 times per week: number of patients",Follow-up,41
same,"SAQ 4th question, <1 time per week: % of patients",Follow-up,(16.04%)
same,"SAQ 4th question, <1 time per week: number of patients",Follow-up,232
same,"SAQ 4th question, Not used: % of patients",Follow-up,(66.04%)
same,"SAQ 4th question, Not used: number of patients",Follow-up,955
same,"SAQ 4th question, ≧3 times per week: % of patients",Follow-up,(1.80%)
same,"SAQ 4th question, ≧3 times per week: number of patients",Follow-up,26
same,"SAQ 4th question, ≧4 times per day: % of patients",Follow-up,(0.00%)
same,"SAQ 4th question, ≧4 times per day: number of patients",Follow-up,0
same,"SAQ 5th question, 1-2 times per week: % of patients",Follow-up,(32.97%)
same,"SAQ 5th question, 1-2 times per week: number of patients",Follow-up,478
same,"SAQ 5th question, 1-3 times per day: % of patients",Follow-up,(3.17%)
same,"SAQ 5th question, 1-3 times per day: number of patients",Follow-up,46
same,"SAQ 5th question, <1 time per week: % of patients",Follow-up,(31.17%)
same,"SAQ 5th question, <1 time per week: number of patients",Follow-up,452
same,"SAQ 5th question, No onset: % of patients",Follow-up,(7.52%)
same,"SAQ 5th question, No onset: number of patients",Follow-up,109
same,"SAQ 5th question, ≧3 times per week: % of patients",Follow-up,(25.03%)
same,"SAQ 5th question, ≧3 times per week: number of patients",Follow-up,363
same,"SAQ 5th question, ≧4 times per day: % of patients",Follow-up,(0.14%)
same,"SAQ 5th question, ≧4 times per day: number of patients",Follow-up,2
same,"SAQ 6th question, Dissatisfied: % of patients",Follow-up,(0.00%)
same,"SAQ 6th question, Dissatisfied: number of patients",Follow-up,0
same,"SAQ 6th question, Highly satisfied: % of patients",Follow-up,(28.18%)
same,"SAQ 6th question, Highly satisfied: number of patients",Follow-up,410
same,"SAQ 6th question, Mostly dissatisfied: % of patients",Follow-up,(0.62%)
same,"SAQ 6th question, Mostly dissatisfied: number of patients",Follow-up,9
same,"SAQ 6th question, Mostly satisfied: % of patients",Follow-up,(62.75%)
same,"SAQ 6th question, Mostly satisfied: number of patients",Follow-up,913
same,"SAQ 6th question, Partly satisfied: % of patients",Follow-up,(8.45%)
same,"SAQ 6th question, Partly satisfied: number of patients",Follow-up,123
same,"SAQ 7th question, Dissatisfied: % of patients",Follow-up,(0.00%)
same,"SAQ 7th question, Dissatisfied: number of patients",Follow-up,0
same,"SAQ 7th question, Highly satisfied: % of patients",Follow-up,(30.56%)
same,"SAQ 7th question, Highly satisfied: number of patients",Follow-up,444
same,"SAQ 7th question, Mostly dissatisfied: % of patients",Follow-up,(0.28%)
same,"SAQ 7th question, Mostly dissatisfied: number of patients",Follow-up,4
same,"SAQ 7th question, Mostly satisfied: % of patients",Follow-up,(62.49%)
